Like-named read-outs stand apart in the source and are kept apart here.
What was measured:
CYP11A = molecular target: T1, CYP11A (Homo sapiens, UniProt P05108); experiment: Conversion reaction of substrates by CYP11A-expressing Escherichia coli; format: cell-based; conditions: for added substrate remained / accumulated amount of pregnenolone: same reaction as Example 6; for Conversion rate: same reaction as Example 6 (28° C., 5 hours)
T1 construct: A 1.45-kb CYP11A1 gene fragment amplified as a result of the above-described reaction; expressed in transfected cells; host or cells: Escherichia coli BL21(DE3), plasmid pCYP11A-ARX (strain BL21CYP11)
T1 sequence (P05108 40-521): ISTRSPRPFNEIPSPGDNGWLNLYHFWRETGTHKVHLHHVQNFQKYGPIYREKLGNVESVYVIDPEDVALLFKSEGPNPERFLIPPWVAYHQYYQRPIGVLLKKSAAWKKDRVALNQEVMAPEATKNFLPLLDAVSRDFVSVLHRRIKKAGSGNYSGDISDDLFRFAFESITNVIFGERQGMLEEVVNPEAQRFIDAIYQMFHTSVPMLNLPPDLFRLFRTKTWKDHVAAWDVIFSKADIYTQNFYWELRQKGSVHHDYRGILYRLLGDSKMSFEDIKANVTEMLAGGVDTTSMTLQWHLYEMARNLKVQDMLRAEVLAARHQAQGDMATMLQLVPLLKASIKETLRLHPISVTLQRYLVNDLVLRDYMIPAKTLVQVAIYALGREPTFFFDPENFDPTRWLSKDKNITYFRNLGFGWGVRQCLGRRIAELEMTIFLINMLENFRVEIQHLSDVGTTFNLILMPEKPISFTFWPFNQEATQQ
Protocol: (§1) The Escherichia coli expression strain BP215 was inoculated into 2 ml of an M9 mix medium (Na2HPO4: 0.68%, KH2PO4: 0.3%, NaCl: 0.05%, NH4C;: 0.01%, Casamino acid: 1%, D-Glucose: 0.4%, CaCl2: 0.1 mM, MgCl2: 1 mM, Thiamine: 0.002%, FeSO4: 0.1 mM, Carbenicillin: 0.005%), and it was then subjected to shaking culture at 30° C. for 17 hours, so as to obtain pre-culture solution. 0.25 ml of this pre-culture solution was inoculated into 25 ml of the main culture medium (Na2HPO4: 0.68%, KH2PO4: 0.3%, NaCl: 0.05%, NH4Cl: 0.01%, Casamino acid: 1%, CaCl2: 0.1 mM, MgCl2: 1 mM, Thiamine: 0.002%, FeSO4: 0.1 mM, Carbenicillin: 0.005%, Overnight Express™ solution: 7%, 5-Aminolevlic acid: 0.008%) using Overnight Express™ Autoinduction System (Novagen Cat. No. 71300-4), and it was then subjected to shaking culture at 25° C. for 24 hours. 5 ml of the obtained main culture solution was centrifuged (3500 rpm, 10 minutes) to obtain cell mass, and 1 ml of CV2 buffer (50 mM (pH) potassium phosphate buffer containing glycerol: 2%, carbenicillin: 0.005%, and isopropyl β-D-1-thiogalactopyranoside: 0.1 mM) was added to the obtained cell mass. Thereafter, 0.01 ml of the methanol solution of 1% 4-cholesten-3-one and 0.02 ml of an aqueous solution of 25% methyl-β-cyclodextrin were added to the mixed solution, and the obtained mixture was then shaken at 28° C. for 5 hours for the reaction. After completion of the reaction, 4 ml of methanol was added to the reaction solution, and they were then fully mixed. The obtained mixture was centrifuged, and the upper layer was then analyzed by HPLC.
A commercially available human testis cDNA (Origene Technologies, Inc.) was used as a template, and a CYP11A1 gene was amplified by PCR using a primer CYP11A-1F (SEQ ID NO: 19) and a primer CYP11A-2R (SEQ ID NO: 20), and also using KOD plus polymerase (TOYOBO Co., Ltd.). The temperature conditions applied during the PCR were 94° C./3 min, 30 cycles of (94° C./30 sec, 55° C./60 sec, and 72° C./90sec), and 72° C./5 min.
A 1.45-kb CYP11A1 gene fragment amplified as a result of the above-described reaction was purified using QIAquick PCR purification Kit (manufactured by QIAGEN), and it was then digested with Nde I and Spe I. Thereafter, the digest was ligated to Escherichia coli expression vector pT7NS-camAB, using T4 DNA ligase, and Escherichia coli DH5α was then transformed with the obtained expression vector, so as to construct a plasmid pCYP11A-camAB. Subsequently, using T4 DNA ligase, the previously prepared bovine-derived adrenodoxin reductase protein-adrenodoxin gene (adr-adx) fragment was inserted into and ligated to each of the Spe I and Bam HI sites of the above-described plasmid, and Escherichia coli DH5a was then transformed with the obtained plasmid, so as to construct plasmid pCYP11A-ARX. Thereafter, Escherichia coli BL21(DE3) was transformed with the thus constructed plasmid, and the obtained cell strain was named as BL21CYP11. The used adx-adr fragment was amplified by PCR with a plasmid pKARX (Sawada et. al. Eur. J. Biochem. 265, 950-956,1999) as a template, using primer bAdxR-1F (SEQ ID NO: 21) and primer bAdx-2R (SEQ ID NO: 22), and also using KOD plus polymerase (manufactured by TOYOBO Co., Ltd.). The temperature condition applied during the PCR were 94° C./3 min, 25 cycles of (94° C./30 sec, 60° C./30 sec, and 72° C./120sec), and 72° C./5 min.
Each substrate was subjected to the same reaction as that of Example 6, separately, and the reaction solution was then subjected to liquid separation using 1 ml of ethyl acetate. The reaction product and the substrate were extracted, and were then analyzed by HPLC.

CYPSS204A = experiment: Conversion reaction of substrates by Escherichia coli expression strain BP215; format: cell-based, Sphingomonas subterranea NBRC 16086
Protocol: The temperature conditions applied during the PCR were 95° C./5 min, 30 cycles of (98° C./30 sec, 60° C./30 sec, and 68° C./2 min), and 68° C./10 min.
Analysis conditions: Using Chromolith speed rod RP18e (50×4.6 mm) column, 50%→100% CH3CN gradient (0 to 3 min) and 100% CH3CN (3 to 8 min) were used as a mobile phase, and detection was carried out at a flow rate of 2 ml/min using CAD™ (Charged Aerosol Detection) and MS.

CYP204A1 = conditions: for Conversion rate: strain BP172, same reaction as Example 6 (28° C., 5 hours); for accumulated amount of pregnenolone / added substrate remained: strain BP172, same reaction as Example 6
Protocol: Novosphingobium aromaticivorans (ATCC 700278) was inoculated into an L medium, and it was then cultured at 30° C. for 2 days. Thereafter, genomic DNA was extracted from the cell mass obtained in the same manner as that of Example 1. A fragment comprising a CYPSS204A1 gene and a ferredoxin gene located downstream thereof was amplified from the above-described genomic DNA by using a primer CYP-5F (SEQ ID NO: 9) and a primer CYP-6R (SEQ ID NO: 10) and also using La Taq polymerase (manufactured by Takara Bio INC.). The temperature conditions applied during this operation were 94° C./3 min, 30 cycles of (98° C./20 sec, 63° C./30 sec, and 68° C./2 min), and 72° C./5 min.
Escherichia coli BL21(DE3) was transformed with this plasmid, and the obtained cell strain was named as BP172.
as §1
As substrates, 4-cholesten-3-one, cholesterol, 7-dehydrocholesterol, ergosterol, 13-sitosterol, stigmasterol, campesterol, desmosterol, (20S)-20-hydroxycholest-4-en-3-one, (22R)-22-hydroxycholest-4-en-3-one, (20R,22R)-20,22-dihydroxycholest-4-en-3-one, and (20R,22S)-20,22-dihydroxycholest-4-en-3-one were used. Each substrate was subjected to the same reaction as that of Example 6, separately, and the generated product was then analyzed by HPLC.

[1] = strain BP215, 28° C., 5 hours, to progesterone, pregnenolone or 7-dehydropregnenolone

| SMILES | added substrate remained (CYP11A) [%] | Conversion rate (CYP11A) [%] | added substrate remained (CYPSS204A; strain BP215, 28° C., 5 hours) [%] | Conversion rate (CYPSS204A; [1]) [%] | Conversion rate (CYP204A1) [%] | accumulated amount of side-chain cleavage product (CYPSS204A; strain BP215, 28° C., 5 hours) [mg/L] | Conversion rate (CYPSS204A; strain BP215, 28° C., 5 hours, to progesterone, pregnenolone or 7-dehydropregnenolone, listed as 20-OH) [%] | accumulated amount of pregnenolone (CYP11A) [mg/L] | accumulated amount of pregnenolone (CYPSS204A; strain BP215, 28° C., 5 hours) [mg/L] | accumulated amount of pregnenolone (CYP204A1) [mg/L] | added substrate remained (CYP204A1) [%] | Conversion rate (CYPSS204A) [%] |
| --- | --- | --- | --- | --- | --- | --- | --- | --- | --- | --- | --- | --- |
| CC(C)CC[C@H](O)[C@](C)(O)[C@H]1CC[C@H]2[C@@H]3CCC4=CC(=O)CC[C@]4(C)[C@H]3CC[C@]12C [(20R,22S)-20,22-dihydroxycholest-4-en-3-one] | 100 | 0 | 0.6 | 69.8 | 41.7 | – | – | – | – | – | – | – |
| CC(C)CCC[C@@H](C)[C@H]1CC[C@H]2C3=CC=C4C[C@@H](O)CC[C@]4(C)[C@H]3CC[C@]12C [7-dehydrocholesterol] | 99.2 | 0.7 | 54 | 34.3 | 28.5 | 34.3 | – | – | – | – | – | – |
| CC(C)CCC[C@](C)(O)[C@H]1CC[C@H]2[C@@H]3CCC4=CC(=O)CC[C@]4(C)[C@H]3CC[C@@]21C [(20S)-20-hydroxycholest-4-en-3-one] | 100 | 0 | 4.8 | 41.0 | 63.9 | – | 41 | – | – | – | – | – |
| CC(C)CC[C@@H](O)[C@](C)(O)[C@H]1CC[C@H]2[C@@H]3CC=C4C[C@@H](O)CC[C@]4(C)[C@H]3CC[C@]12C [(20R,22R)-20,22-dihydroxy-cholesterol] | 51.6 | 32.3 | 0 | 53.0 | 51.6 | – | – | 32.3 | 53.0 | 51.6 | 0 | – |
| CC(C)[C@@H](C)/C=C/[C@@H](C)[C@H]1CC[C@H]2C3=CC=C4C[C@@H](O)CC[C@]4(C)[C@H]3CC[C@]12C [ergosterol] | 100 | 0 | – | – | – | 2.8 | – | – | – | – | – | 2.8 |
| CC(C)CC[C@H](O)[C@@H](C)[C@H]1CC[C@H]2[C@@H]3CC=C4C[C@@H](O)CC[C@]4(C)[C@H]3CC[C@]12C [(22S)-22-hydroxy-cholesterol] | 92.6 | 6.1 | 23.5 | 37.5 | 12.9 | – | – | 6.1 | 37.5 | 12.9 | 60.1 | – |
